The text below walks through data of patent US10448639B2, “Fungicidal pyrazoles” (FMC CORPORATION, priority 2009, dated 2019).

One assay deals with Plasmopara viticola. The experiment in a line: Test A: grape downy mildew, curative spray on inoculated grape seedlings, visual disease rating. It is filed as in vivo. Conditions: 100 = 100% disease control, 0 = no disease control relative to controls. An excerpt: Upon removal, visual disease ratings were made. […] A dash (-) indicates no test results.
A further assay has as its system Phytophthora infestans. The class given is in vivo. Conditions: tomato late blight; 100 = 100% disease control, 0 = no disease control relative to controls.
Another assay has as its system Rhizoctonia solani. The experiment in a line: Test E: turf brown patch, preventive spray on creeping bent grass (Agrostis sp.) seedlings, disease rating. The class given is in vivo. Conditions: 100 = 100% disease control, 0 = no disease control relative to controls. The source says:
A dash (-) indicates no test results.

The subject of assay [1] is Puccinia recondita f. sp. tritici. The experiment in a line: Test I: wheat leaf rust, preventive spray on wheat seedlings, visual disease rating. Particulars: wheat leaf rust, sprayed the day before inoculation; 100 = 100% disease control, 0 = no disease control relative to controls.
A further assay concerns Botrytis cinerea. The experiment in a line: Test B: tomato Botrytis, preventive spray on tomato seedlings, visual disease rating. Particulars: tomato Botrytis; 100 = 100% disease control, 0 = no disease control relative to controls.
For a further assay, the system named is Septoria tritici. Briefly: Test G: wheat leaf blotch, preventive spray on wheat seedlings, visual disease rating. Conditions: wheat leaf blotch, sprayed the day before inoculation; 100 = 100% disease control, 0 = no disease control relative to controls.
A further assay has as its system Alternaria solani. The experiment in a line: Test C: tomato early blight, preventive spray on tomato seedlings, visual disease rating. Particulars: tomato early blight; 100 = 100% disease control, 0 = no disease control relative to controls.
In assay [2] the test system is Erysiphe graminis f sp. tritici. Briefly: Test J: wheat powdery mildew, preventive spray on wheat seedlings, visual disease rating. Particulars: wheat powdery mildew, sprayed the day before inoculation; 100 = 100% disease control, 0 = no disease control relative to controls.
The next assay has as its system Septoria nodorum. The experiment in a line: Test F: Septoria glume blotch, preventive spray on wheat seedlings, visual disease rating. Conditions: Septoria glume blotch on wheat; 100 = 100% disease control, 0 = no disease control relative to controls.

Take `Cc1nn(C)c(N(CC#N)c2c(F)cc(F)cc2F)c1-c1ccc(F)cc1Cl` [compound 326]: the “Test A disease control rating” value with Plasmopara viticola is listed as 8%. The “Test D disease control rating” value in the assay with Phytophthora infestans is 0%. Further, in the assay with Rhizoctonia solani, the “Test E disease control rating” value is on record as 99%. In addition, in assay [1], the “Test I disease control rating” value is listed as 99%. The “Test B disease control rating” value in the assay on Botrytis cinerea is on record as 99%. In addition, in the assay with Septoria tritici, the “Test G disease control rating” value is 100%. The “Test C disease control rating” value in the assay with Alternaria solani amounted to 99%. The “Test J disease control rating” value in [2] came to 94%. The “Test F disease control rating” value with Septoria nodorum came out at 73%.
